The compounds below were run against human PAD4 (hPAD4) (Homo sapiens (Human), UniProt Q9UM07) (assay: RFMS Human PAD4 Functional Assay 1). Settings: RFMS assay 1; 5 nM hPAD4, 250 μM BAEE substrate, 50 μM calcium, 37° C.
Type: biochemical
Procedure, shortened: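 Recombinant hPAD4 (5 nM) was preincubated with compound (top 50 μM, 0.5% DMSO) for 30 min at 37 °C, then reacted with 250 μM BAEE for 90 min at 37 °C in pH 7.5 HEPES buffer with 50 μM calcium and 5 μM TPEN. Product was derivatized with phenyl glyoxal and quantified by RapidFire MS.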

Chain of human PAD4 (hPAD4) (Q9UM07 whole entry): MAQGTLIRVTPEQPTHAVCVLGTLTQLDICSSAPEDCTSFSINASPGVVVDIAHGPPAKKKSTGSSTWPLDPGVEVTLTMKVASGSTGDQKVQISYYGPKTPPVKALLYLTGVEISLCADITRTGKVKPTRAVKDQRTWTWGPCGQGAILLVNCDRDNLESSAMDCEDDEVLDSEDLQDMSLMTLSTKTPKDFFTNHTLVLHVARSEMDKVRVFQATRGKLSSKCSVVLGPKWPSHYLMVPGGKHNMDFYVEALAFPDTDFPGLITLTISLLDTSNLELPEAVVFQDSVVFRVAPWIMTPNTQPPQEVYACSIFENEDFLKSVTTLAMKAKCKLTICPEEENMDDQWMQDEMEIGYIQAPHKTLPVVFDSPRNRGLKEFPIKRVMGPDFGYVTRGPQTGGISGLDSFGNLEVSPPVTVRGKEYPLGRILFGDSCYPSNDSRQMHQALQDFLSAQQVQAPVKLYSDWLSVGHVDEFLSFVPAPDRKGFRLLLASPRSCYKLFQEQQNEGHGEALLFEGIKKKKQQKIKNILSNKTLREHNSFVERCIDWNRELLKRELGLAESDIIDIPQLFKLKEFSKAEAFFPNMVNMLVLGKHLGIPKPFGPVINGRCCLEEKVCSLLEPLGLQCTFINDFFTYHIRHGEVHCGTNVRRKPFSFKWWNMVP

| IC50 [nM] | SMILES |
| --- | --- |
| 363 | Cc1c(-c2cc3ccc(-c4ccc5c(c4)CNC5=O)cc3n2CC2CC2)oc2cc(C(=O)N3C[C@H](N)C[C@@H](F)C3)ccc12 [Example 195, 5-(2-(6-((3R,5R)-3-Amino-5-fluoropiperidine-1-carbonyl)-3-methylbenzofuran-2-yl)-1-(cyclopropylmethyl)-1H-indol-6-yl)isoindolin-1-one] |
| 384 | Cc1c(-c2cc3ccc(-c4ccc(C(N)=O)c(F)c4)cc3n2CC2CC2)oc2cc(C(=O)N3C[C@H](N)C[C@@H](F)C3)ccc12 [Example 196, 4-(2-(6-((3R,5R)-3-Amino-5-fluoropiperidine-1-carbonyl)-3-methylbenzofuran-2-yl)-1-(cyclopropylmethyl)-1H-indol-6-yl)-2-fluorobenzamide] |
| 317 | Cc1c(-c2cc3ccc(-c4ccn5c(C)nnc5c4)cc3n2CC2CC2)oc2cc(C(=O)N3C[C@H](N)C[C@@H](F)C3)ccc12 [Example 197, ((3R,5R)-3-Amino-5-fluoropiperidin-1-yl)(2-(1-(cyclopropylmethyl)-6-(3-methyl-[1,2,4]triazolo[4,3-a]pyridin-7-yl)-1H-indol-2-yl)-3-methylbenzofuran-6-yl)methanone] |
| 3260 | Cc1c(-c2cc3ccc(-c4cccc(O)c4F)cc3n2CC2CC2)oc2cc(C(=O)N3C[C@H](N)C[C@@H](F)C3)ccc12 [Example 198, ((3R,5R)-3-Amino-5-fluoropiperidin-1-yl)(2-(1-(cyclopropylmethyl)-6-(2-fluoro-3-hydroxyphenyl)-1H-indol-2-yl)-3-methylbenzofuran-6-yl)methanone] |
| 3360 | Cc1c(-c2cc3ccc(-c4ccc(C(N)=O)c(Cl)c4)cc3n2CC2CC2)oc2cc(C(=O)N3C[C@H](N)C[C@@H](F)C3)ccc12 [Example 199, 4-(2-(6-((3R,5R)-3-Amino-5-fluoropiperidine-1-carbonyl)-3-methylbenzofuran-2-yl)-1-(cyclopropylmethyl)-1H-indol-6-yl)-2-chlorobenzamide] |
| 1970 | Cc1c(-c2cc3ccc(N4CCNCC4)cc3n2CC2CC2)oc2cc(C(=O)N3C[C@H](N)C[C@@H](F)C3)ccc12 [Example 201, ((3R,5R)-3-Amino-5-fluoropiperidin-1-yl)(2-(1-(cyclopropylmethyl)-6-(piperazin-1-yl)-1H-indol-2-yl)-3-methylbenzofuran-6-yl)methanone] |
| 1060 | Cc1c(-c2cc3ccc(N4CCC(N)CC4)cc3n2CC2CC2)oc2cc(C(=O)N3C[C@H](N)C[C@@H](F)C3)ccc12 [Example 202, ((3R,5R)-3-Amino-5-fluoropiperidin-1-yl)(2-(6-(4-aminopiperidin-1-yl)-1-(cyclopropylmethyl)-1H-indol-2-yl)-3-methylbenzofuran-6-yl)methanone] |
| 39 | Cc1c(-c2cc3ccc(C(C)(C)O)cc3n2CC2CC2)oc2cc(C(=O)N3CC4CCC3[C@@H]4N)ccc12 (stereo partly drawn) [Example 204, ((7R)-7-Amino-2-azabicyclo[2.2.1]heptan-2-yl)(2-(1-(cyclopropylmethyl)-6-(2-hydroxypropan-2-yl)-1H-indol-2-yl)-3-methylbenzofuran-6-yl)methanone] |
| 490 | COc1cc(C(=O)N2C[C@H](N)C[C@@H](F)C2)cn2nc(-c3cc4ccc(-c5cccc(CO)c5)cc4n3CC3CC3)c(C)c12 [Example 210, [3-(2-{6-[(3R,5R)-3-Amino-5-fluoropiperidine-1-carbonyl]-4-methoxy-3-methylpyrazolo[1,5-a]pyridin-2-yl}-1-(cyclopropylmethyl)-1H-indol-6-yl)phenyl]methanol] |
| 1690 | COc1cccc(-c2ccc3cc(-c4nn5cc(C(=O)N6C[C@H](N)C[C@@H](F)C6)cc(OC)c5c4C)n(CC4CC4)c3c2)c1 [Example 212, (3R,5R)-1-{2-[1-(Cyclopropylmethyl)-6-(3-methoxyphenyl)-1H-indol-2-yl]-4-methoxy-3-methylpyrazolo[1,5-a]pyridine-6-carbonyl}-5-fluoropiperidin-3-amine] |

Further lines, the compound ahead of its results:

| SMILES | IC50 [nM] |
| --- | --- |
| COc1cc(C(=O)N2CC3CCC2[C@@H]3N)cc2oc(-c3cc4ccc(C(C)(C)O)nc4n3CC3CC3)c(C)c12 (stereo partly drawn) [Example 203, ((7R)-7-Amino-2-azabicyclo[2.2.1]heptan-2-yl)(2-(1-(cyclopropylmethyl)-6-(2-hydroxypropan-2-yl)-1H-pyrrolo[2,3-b]pyridin-2-yl)-4-methoxy-3-methylbenzofuran-6-yl)methanone] | 12 |
| COc1cc(C(=O)N2CC3CCC2[C@@H]3N)cn2nc(-c3cc4ccc(-c5ccccc5N5CCNC5=O)nc4n3CC3CC3)c(C)c12 (stereo partly drawn) [Example 205, 1-[2-(2-{6-[(7R)-7-Amino-2-azabicyclo[2.2.1]heptane-2-carbonyl]-4-methoxy-3-methylpyrazolo[1,5-a]pyridin-2-yl}-1-(cyclopropylmethyl)-1H-pyrrolo[2,3-b]pyridin-6-yl)phenyl]imidazolidin-2-one] | 60 |
| COc1cc(C(=O)N2CC3CCC2[C@@H]3N)cn2nc(-c3cc4ccc(-c5ccc(C(N)=O)c(C)c5)nc4n3CC3CC3)c(C)c12 (stereo partly drawn) [Example 206, 4-(2-{6-[(7R)-7-Amino-2-azabicyclo[2.2.1]heptane-2-carbonyl]-4-methoxy-3-methylpyrazolo[1,5-a]pyridin-2-yl}-1-(cyclopropylmethyl)-1H-pyrrolo[2,3-b]pyridin-6-yl)-2-methylbenzamide] | 70 |
| COc1cc(C(=O)N2C[C@H](N)C[C@@H](F)C2)cn2nc(-c3cc4ccc(-c5ccccc5CO)cc4n3CC3CC3)c(C)c12 [Example 209, [2-(2-{6-[(3R,5R)-3-Amino-5-fluoropiperidine-1-carbonyl]-4-methoxy-3-methylpyrazolo[1,5-a]pyridin-2-yl}-1-(cyclopropylmethyl)-1H-indol-6-yl)phenyl]methanol] | 1080 |
| COc1cc(C(=O)N2C[C@H](N)C[C@@H](F)C2)cn2nc(-c3cc4ccc(-c5cccc(CNS(C)(=O)=O)c5)cc4n3CC3CC3)c(C)c12 [Example 211, N-{[3-(2-{6-[(3R,5R)-3-Amino-5-fluoropiperidine-1-carbonyl]-4-methoxy-3-methylpyrazolo[1,5-a]pyridin-2-yl}-1-(cyclopropylmethyl)-1H-indol-6-yl)phenyl]methyl}methanesulfonamide] | 1050 |
| COc1cc(C(=O)N2C[C@H](N)C[C@@H](F)C2)cn2nc(-c3cc4ccc(-c5cccc(NS(C)(=O)=O)c5)cc4n3CC3CC3)c(C)c12 [Example 213, N-[3-(2-{6-[(3R,5R)-3-Amino-5-fluoropiperidine-1-carbonyl]-4-methoxy-3-methylpyrazolo[1,5-a]pyridin-2-yl}-1-(cyclopropylmethyl)-1H-indol-6-yl)phenyl]methanesulfonamide] | 680 |
| COc1cc(C(=O)N2C[C@H](N)C[C@@H](F)C2)cn2nc(-c3cc4ccc(-c5ccc(NC(C)=O)cc5)cc4n3CC3CC3)c(C)c12 [Example 214, N-[4-(2-{6-[(3R,5R)-3-Amino-5-fluoropiperidine-1-carbonyl]-4-methoxy-3-methylpyrazolo[1,5-a]pyridin-2-yl}-1-(cyclopropylmethyl)-1H-indol-6-yl)phenyl]acetamide] | 150 |
| COc1cc(C(=O)N2C[C@H](N)C[C@@H](F)C2)cn2nc(-c3cc4ccc(-c5cccc(CNC(C)=O)c5)cc4n3CC3CC3)c(C)c12 [Example 215, N-{[3-(2-{6-[(3R,5R)-3-Amino-5-fluoropiperidine-1-carbonyl]-4-methoxy-3-methylpyrazolo[1,5-a]pyridin-2-yl}-1-(cyclopropylmethyl)-1H-indol-6-yl)phenyl]methyl}acetamide] | 610 |
